# Measurements published in patent US11225503B2, “Crystobactamides” (HELMHOLTZ-ZENTRUM FÜR INFEKTIONSFORSCHUNG GMBH, priority 2013, dated 2022).
# Legend:
# Assay type in all cases: cell-based
# [1] = tested on: Mycobacterium smegmatis mc^2155 ATCC700084; test: Susceptibility testing, MIC microdilution; details: Mycolicibacterium smegmatis, ATCC700084|MC^2155
# Protocol: (§1) Bacterial wildtype strains used in susceptibility assays were either part of our strain collection or purchased from the German Collection of Microorganisms and Cell Cultures (DSMZ) or from the American Type Culture Collection (ATCC). E. coli strain WT^[6] and E. coli mutants were kindly provided by Prof. Dr. P. Heisig, Pharmaceutical Biology and Microbiology, University of Hamburg.
# (§2) MIC values were determined in microdilution assays. Overnight cultures were diluted in the appropriate growth medium to achieve an inoculum of 10^4-10^6 cfu/mL. Yeasts were grown in Myc medium (1% phytone peptone, 1% glucose, 50 mM HEPES, pH 7.0), S. pneumonia and E. faecalis in tryptic soy broth (TSB: 1.7% peptone casein, 0.3% peptone soymeal, 0.25% glucose, 0.5% NaCl, 0.25% K2HPO4; pH 7.3); M. smegmatis in Middlebrook 7H9 medium supplemented with 10% Middlebrook ADC enrichment and 2 ml/l glycerol). All other listed bacteria were grown in Müller-Hinton broth (0.2% beef infusion solids, 1.75% casein hydrolysate, 0.15% starch, pH 7.4). Cystobactamides and reference drugs were added directly to the cultures in sterile 96-well plates as duplicates and serial dilutions were prepared. Microorganisms were grown on a microplate shaker (750 rpm, 30-37° C., 18-48 h), except S. pneumonia, which was grown at non-shaking conditions (37° C., 5% CO2, 18 h). Growth inhibition was assessed by visual inspection and the MIC was defined as the lowest concentration of compound that inhibited visible growth.
# [2] = tested on: Acinetobacter baumannii DSM-30008; test: Susceptibility testing, MIC microdilution; details: Acinetobacter baumannii, DSM30008
# Protocol: as §1, §2
# [3] = tested on: Candida albicans DSM-1665; test: Susceptibility testing, MIC microdilution; details: Candida albicans, DSM1665
# Protocol: as §1, §2
# [4] = tested on: Escherichia coli DSM-12242 (NAL^R); test: Susceptibility testing, MIC microdilution; details: Escherichia coli, DSM12242
# Protocol: as §1, §2
# [5] = tested on: Enterobacter aerogenes DSM-30053; test: Susceptibility testing, MIC microdilution; details: Klebsiella aerogenes, DSM30053
# Protocol: as §1, §2
# [6] = tested on: Micrococcus luteus DSM-1790; test: Susceptibility testing, MIC microdilution; details: Micrococcus luteus, DSM1790
# Protocol: as §1, §2
# [7] = tested on: Escherichia coli ATCC25922; test: Susceptibility testing, MIC microdilution
# Protocol: as §1, §2
# [8] = tested on: Escherichia coli ATCC35218; test: Susceptibility testing, MIC microdilution
# Protocol: as §1, §2
# [9] = tested on: Pichia anomala DSM-6766; test: Susceptibility testing, MIC microdilution; details: Hansenula anomala, DSM6766
# Protocol: as §1, §2
# [10] = tested on: Bacillus subtilis DSM-10; test: Susceptibility testing, MIC microdilution; details: Bacillus subtilis, DSM10
# Protocol: as §1, §2
# [11] = tested on: Burkholderia cenocepacia DSM-16553; test: Susceptibility testing, MIC microdilution; details: Burkholderia cenocepacia, DSM16553
# Protocol: as §1, §2
# [12] = tested on: Chromobacterium violaceum DSM-30191; test: Susceptibility testing, MIC microdilution; details: Chromobacterium violaceum, DSM30191
# Protocol: as §1, §2
# [13] = tested on: Staphylococcus aureus ATCC29213; test: Susceptibility testing, MIC microdilution
# Protocol: as §1, §2
# [14] = tested on: Escherichia coli DSM-1116; test: Susceptibility testing, MIC microdilution; details: Escherichia coli, DSM1116
# Protocol: as §1, §2
# [15] = tested on: Pseudomonas aeruginosa PA14; test: Susceptibility testing, MIC microdilution
# Protocol: as §1, §2
# [16] = tested on: Streptococcus pneumoniae DSM-20566; test: Susceptibility testing, MIC microdilution; details: Streptococcus pneumoniae, DSM20566
# Protocol: as §1, §2
# [17] = tested on: Enterococcus faecalis ATCC29212; test: Susceptibility testing, MIC microdilution
# Protocol: as §1, §2
# [18] = tested on: Klebsiella pneumoniae DSM-30104; test: Susceptibility testing, MIC microdilution; details: Klebsiella pneumoniae, DSM30104
# Protocol: as §1, §2
# [19] = tested on: Pseudomonas aeruginosa ATCC27853; test: Susceptibility testing, MIC microdilution
# Protocol: as §1, §2
# [20] = tested on: Escherichia coli DSM-26863 (tolC3); test: Susceptibility testing, MIC microdilution; details: Escherichia coli, DSM26863
# Protocol: as §1, §2
# [21] = tested on: E. coli WT; test: Susceptibility of mutant E. coli strains, MIC; details: Escherichia coli
# Description: Cystobactamides were screened using a panel of E. coli strains with typical mutations in gyrA and parC genes (Table 11).
# High-level quinolone resistance often results from a combination of several target site mutations and altered efflux mechanisms. […] This, in turn, leads to overproduction of MarA and AcrAB and overexpression of the AcrAB efflux pump is associated with the MAR (multiple antibiotic resistance) phenotype.^[5]
# as §1, §2
compound,measurement,setting,value
"CC(C)Oc1cc(C(=O)O)ccc1NC(=O)c1ccc(NC(=O)c2ccc(N)cc2)c(OC(C)C)c1O [cystobactamide C, Cystobactamide C]",MIC,[1],> 65 µg/mL
same,MIC,[2],32.5 µg/mL
same,MIC,[3],> 65 µg/mL
same,MIC,[4],8.1 µg/mL
same,MIC,[5],> 33 µg/mL
same,MIC,[6],4.1 µg/mL
same,MIC,[7],8.1 µg/mL
same,MIC,[8],16.3 µg/mL
same,MIC,[9],> 65 µg/mL
same,MIC,[10],2 µg/mL
same,MIC,[11],> 65 µg/mL
same,MIC,[12],16.3 µg/mL
same,MIC,[13],8.1 µg/mL
same,MIC,[14],16.3 µg/mL
same,MIC,[15],65 µg/mL
same,MIC,[16],8.1 µg/mL
same,MIC,[17],4.1 µg/mL
same,MIC,[18],65 µg/mL
same,MIC,[19],65 µg/mL
same,MIC,[20],4.1 µg/mL
same,MIC,[21],8.1 µg/mL
"CO[C@H](C(=O)Nc1ccc(C(=O)Nc2ccc(C(=O)Nc3ccc(C(=O)O)cc3OC(C)C)c(O)c2OC(C)C)cc1)[C@H](NC(=O)c1ccc(NC(=O)c2ccc([N+](=O)[O-])cc2)cc1)C(=O)O [cystobactamide A, Cystobactamide A]",MIC,[1],> 59 µg/mL
same,MIC,[2],7.4 µg/mL
same,MIC,[3],> 59 µg/mL
same,MIC,[4],0.9 µg/mL
same,MIC,[5],> 59 µg/mL
same,MIC,[6],0.06 µg/mL
same,MIC,[7],0.5 µg/mL
same,MIC,[8],0.9 µg/mL
same,MIC,[9],> 59 µg/mL
same,MIC,[10],0.12 µg/mL
same,MIC,[11],> 59 µg/mL
same,MIC,[12],> 59 µg/mL
same,MIC,[13],0.12 µg/mL
same,MIC,[14],0.9 µg/mL
same,MIC,[15],> 59 µg/mL
same,MIC,[16],0.23 µg/mL
same,MIC,[17],0.06 µg/mL
same,MIC,[18],> 59 µg/mL
same,MIC,[19],> 59 µg/mL
same,MIC,[20],0.5 µg/mL
same,MIC,[21],0.5 µg/mL
